Among the data in patent US12157746B2, “Tetrahydro-1H-pyrazino[2,1-a]isoindolylquinoline compounds for the treatment of autoimmune disease” (F. HOFFMANN-LA ROCHE AG, priority 2018, dated 2024) are IC50 values, retold here.

Where only a bound is given, the exact number is not on record here.

The target of this experiment is T1, human TLR8 (Homo sapiens, UniProt Q9NR97).
T1 sequence (Q9NR97 27-1041): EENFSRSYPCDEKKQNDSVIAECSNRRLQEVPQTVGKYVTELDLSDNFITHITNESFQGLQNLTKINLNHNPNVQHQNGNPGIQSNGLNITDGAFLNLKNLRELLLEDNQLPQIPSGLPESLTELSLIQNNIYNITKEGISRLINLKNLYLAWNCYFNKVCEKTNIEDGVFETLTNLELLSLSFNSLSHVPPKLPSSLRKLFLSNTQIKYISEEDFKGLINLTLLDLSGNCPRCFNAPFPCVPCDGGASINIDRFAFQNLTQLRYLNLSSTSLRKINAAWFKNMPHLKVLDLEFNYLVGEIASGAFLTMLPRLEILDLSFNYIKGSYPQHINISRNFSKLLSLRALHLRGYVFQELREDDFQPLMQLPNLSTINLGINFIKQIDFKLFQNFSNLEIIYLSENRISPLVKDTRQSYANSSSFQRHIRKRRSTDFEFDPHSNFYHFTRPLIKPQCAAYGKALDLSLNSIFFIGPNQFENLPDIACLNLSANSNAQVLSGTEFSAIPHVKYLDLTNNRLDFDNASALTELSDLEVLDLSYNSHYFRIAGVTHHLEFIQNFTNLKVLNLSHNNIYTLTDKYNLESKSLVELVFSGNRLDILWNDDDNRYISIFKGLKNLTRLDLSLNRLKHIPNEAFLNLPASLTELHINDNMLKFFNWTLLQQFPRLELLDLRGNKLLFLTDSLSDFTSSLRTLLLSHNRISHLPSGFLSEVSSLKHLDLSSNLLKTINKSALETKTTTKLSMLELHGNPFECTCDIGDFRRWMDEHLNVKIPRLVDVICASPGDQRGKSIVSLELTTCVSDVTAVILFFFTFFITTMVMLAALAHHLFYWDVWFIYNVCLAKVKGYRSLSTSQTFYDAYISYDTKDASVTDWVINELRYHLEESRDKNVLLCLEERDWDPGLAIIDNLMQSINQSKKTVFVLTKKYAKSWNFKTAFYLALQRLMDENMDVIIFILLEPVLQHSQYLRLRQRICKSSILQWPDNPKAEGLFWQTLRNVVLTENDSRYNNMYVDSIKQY
Description: HEK293-Blue-hTLR-8 cells assay. The format is cell-based. As to conditions: HEK293-Blue-hTLR8 cells, R848 stimulation, 20 hrs, SEAP reporter; read-out: HEK/hTLR8 IC50. In short, it runs like this:
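Antagonism read out in HEK293-Blue-hTLR8 cells carrying an NF-κB/AP-1-driven SEAP reporter, stimulated with R848 (10 μL of 60 uM stock added) alongside serially diluted compound (1% DMSO), 20 h at 37° C. Supernatant SEAP measured with QUANTI-Blue after 2 h at 37° C, absorbance at 620-655 nm.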
As for `C[C@@H]1CN(c2ccc(C#N)c3ncccc23)C[C@@H]2c3ccc(N4C[C@H]5CNCCN5C4=O)cc3CN12` [Example 72, 5-[(4R,10bS)-8-[(8aR)-3-oxo-1,5,6,7,8,8a-hexahydroimidazo[1,5-a]pyrazin-2-yl]-4-methyl-3,4,6,10b-tetrahydro-1H-pyrazino[2,1-a]isoindol-2-yl]quinoline-8-carbonitrile], the IC50 was below 3.2 nM. For `Cc1ccc(N2C[C@@H](C)N3Cc4cc(N[C@H]5CNC[C@H]5F)ccc4[C@H]3C2)c2cccnc12` [Example 75, (4R,10bS)—N-[(3S,4R)-4-fluoropyrrolidin-3-yl]-4-methyl-2-(8-methyl-5-quinolyl)-3,4,6,10b-tetrahydro-1H-pyrazino[2,1-a]isoindol-8-amine], the IC50 was determined as 12.4 nM.

For the compound `C[C@@H]1CN(c2ccc(C#N)c3ncccc23)C[C@@H]2c3cc(F)c(N4CC5CNCC(C4)O5)cc3CN12` [Example 85, 5-[(4R,10bS)-9-fluoro-4-methyl-8-(9-oxa-3,7-diazabicyclo[3.3.1]nonan-3-yl)-3,4,6,10b-tetrahydro-1H-pyrazino[2,1-a]isoindol-2-yl]quinoline-8-carbonitrile], the IC50 amounted to 9.2 nM. Consider `C[C@@H]1CN(c2ccc(C#N)c3ncsc23)C[C@@H]2c3ccc(N[C@H]4CNC[C@H]4F)cc3CN12` [Example 78, 7-[(4R,10bS)-8-[[(3S,4R)-4-fluoropyrrolidin-3-yl]amino]-4-methyl-3,4,6,10b-tetrahydro-1H-pyrazino[2,1-a]isoindol-2-yl]-1,3-benzothiazole-4-carbonitrile], for which the IC50 worked out at 0.4 nM.

On to `C[C@H]1CN(c2ccc(C#N)c3ncccc23)C[C@H]2c3ccc(N4CCNCC4)cc3CN12` [Example 2, 5-[(4S,10bR)-4-methyl-8-piperazin-1-yl-3,4,6,10b-tetrahydro-1H-pyrazino[2,1-a]isoindol-2-yl]quinoline-8-carbonitrile], for which the IC50 was below 3.2 nM. As for `C[C@@H]1CN(c2ccc(C#N)c3ncccc23)C[C@@H]2c3cccc(N[C@H]4CNC[C@H]4F)c3CN12` [Example 81, 5-[(4R,10bS)-7-[[(3S,4R)-4-fluoropyrrolidin-3-yl]amino]-4-methyl-3,4,6,10b-tetrahydro-1H-pyrazino[2,1-a]isoindol-2-yl]quinoline-8-carbonitrile], the IC50 is below 3.2 nM. Turning to `C[C@@H]1CN(c2ccc(C#N)c3ncccc23)C[C@@H]2c3ccc(N4C[C@@H]5CNCCN5C4=O)cc3CN12` [Example 71, 5-[(4R,10bS)-8-[(8aS)-3-oxo-1,5,6,7,8,8a-hexahydroimidazo[1,5-a]pyrazin-2-yl]-4-methyl-3,4,6,10b-tetrahydro-1H-pyrazino[2,1-a]isoindol-2-yl]quinoline-8-carbonitrile], the IC50 was below 3.2 nM.

As to `C[C@@H]1CN(c2ccc(C#N)c3ncccc23)C[C@@H]2c3ccc(OC[C@@H]4C[C@H](F)CN4)cc3CN12` [Example 74, 5-[(4R,10bS)-8-[[(2S,4S)-4-fluoropyrrolidin-2-yl]methoxy]-4-methyl-3,4,6,10b-tetrahydro-1H-pyrazino[2,1-a]isoindol-2-yl]quinoline-8-carbonitrile], the IC50 is below 0.3 nM. As for `C[C@@H]1CN(c2ccc(C#N)c3ncccc23)C[C@@H]2c3cccc(NCCN4CC[C@H](O)C4)c3CN12` [Example 80, 5-[(4R,10bS)-7-[2-[(3S)-3-hydroxypyrrolidin-1-yl]ethylamino]-4-methyl-3,4,6,10b-tetrahydro-1H-pyrazino[2,1-a]isoindol-2-yl]quinoline-8-carbonitrile], the IC50 was below 3.2 nM. Turning to `CO[C@H]1CNC[C@@H]1Nc1ccc2c(c1)CN1[C@H](C)CN(c3ccc(C#N)c4ncccc34)C[C@H]21` [Example 62, 5-[(4R,10bS)-8-[[(3S,4S)-4-methoxypyrrolidin-3-yl]amino]-4-methyl-3,4,6,10b-tetrahydro-1H-pyrazino[2,1-a]isoindol-2-yl]quinoline-8-carbonitrile], the IC50 was below 3.2 nM. For the compound `C[C@@H]1CN(c2ccc(C#N)c3ncccc23)C[C@@H]2c3ccc(NCC4COCCN4)cc3CN12` (stereo partly drawn) [Example 57, 5-[(4R,10bS)-4-methyl-8-(morpholin-3-ylmethylamino)-3,4,6,10b-tetrahydro-1H-pyrazino[2,1-a]isoindol-2-yl]quinoline-8-carbonitrile], the IC50 is below 3.2 nM.
